Reference: US5466717A, “Halogenated 4'-methoxyacetophenones as microbicides and preservatives” (Buckman Laboratories Int'l, Inc., priority 1993, dated 1995)
Read-outs that look alike come from different tables or passages of the source.

Tests used:
E. aerogenes = experiment: Basal salts method, percentage kill of E. aerogenes (Table 5); type: cell-based, Enterobacter aerogenes; settings: Klebsiella aerogenes
Experimental: Compounds 1 and 2 were tested against bacterial growth by the basal salts method described in U.S. Pat. No. 2,881,070, Column 5, line 12--Column 6, line 53. The disclosure of U.S. Patent No. 2,881,070 is specifically incorporated here by reference.

Enterobacter aerogenes = experiment: Pulp substrate method, percent kill of E. aerogenes (Table 2); type: cell-based; settings: for killing at 1 ppm / killing at 2 ppm / killing at 4 ppm / killing at 8 ppm / killing at 10 ppm / killing at 15 ppm / killing at 20 ppm / killing at 25 ppm: Klebsiella aerogenes, pulp substrate, read-out: % Kill of E. aerugenes; for bactericidal activity (in words): at both neutral and alkaline pH, conclusion from Table 2 (E. aerogenes and P. aeruginosa)
Experimental: Compounds 1 and 2 were tested by the pulp substrate method described in detail in U.S. Pat. No. 2,881,070, column 5, line 12--column 6, line 53. The disclosure of U.S. Pat. No. 2,881,070 is specifically incorporated here by reference. […] The tests utilized Enterobacter aerogenes and Pseudomonas aeruginosa in pulp substrates that had been buffered at pH 7.0 and 8.0.

[1] = tested on: Pseudomonas aeruginosa, Enterobacter serogenes and Bacillus subtilus; experiment: Preservation of acrylic latex paint, 9 week multiple challenge test (Table 1); type: cell-based; parameters: key: 0: no growth was observed; +: less than 10 colonies were observed; ++: 10 or more colonies were observed
Experimental: The preservative effectiveness of compounds 1 and 2 was determined in a freshly prepared water-based paint formulated with titanium dioxide and calcium carbonate as pigments, an acrylic resin emulsion, dispersants, and hydroxyethyl cellulose as a thickener. The pH of this paint was approximately 9.0. […] One hundred gram samples of the test paints were challenged initially and at the end of the third and sixth weeks in a three-challenge, nine-week test with 1.0 milliliter of […] containing Pseudomonas aeruginosa, Enterobacter serogenes and Bacillus subtilus at a level of approximately 1.5×10^6 organisms per milliliter. After vigorous shaking, the inoculated paint was incubated at 28° C. Growth in system was monitored by streaking a sample of each test paint onto a nutrient agar on plates at intervals of 1 day, 2 days, 3 days, 7 days, and 21 days after each challenge. The streaked plates were incubated at 37° C. and examined for bacterial growth after 24 hours (challenge 1). A second sample of the same inoculated paint was rechallenged at the end of 21 days (challenge 2) and again at the end of 42 days (challenge 3).

Aspergillus niger = experiment: Inhibition of Aspergillus niger, modified pulp substrate method (Table 3); type: cell-based; parameters: key: 4: excellent; 3: good; 2: poor; 1: very poor, scant, questionable; 0: no growth; settings: pH 4.5 to 5.0
Experimental: The growth inhibiting activity of compounds 1 and 2 on the fungus Aspergillus niger was evaluated. A variation of the pulp substrate method of Example 2 was used.
When fungi are used as test organisms, the pulp-substrate test method is modified to permit the growth of fungi. The pulp substrate comprises an aqueous slurry of spruce groundwood containing 1 percent by weight (dry basis) of wood fibers enriched by the addition of 0.26 percent of sodium nitrate and 0.64 percent of maltose (technical grade). Forty-gram portions of the enriched groundwood pulp slurry were added to 250 mL Erlenmeyer flasks fitted with loose metal caps and were then sterilized. Each of the following substances was then added to the flasks in the order listed:
(1) Sterile, demineralized water as required in each individual case was added to bring the total weight of the contents of each flask to 50 grams, after allowing for all subsequent additions specified hereinafter (including inoculation with the aqueous suspension of spores and/or mycelial fragments of the test fungus).
(2) One milliliter of a 2.0 percent by weight sterile solution of rosin size. Rosin size is the pasty sodium soap of rosin containing approximately 20 to 30 percent free rosin and 30 percent water. A suitable rosin size is that known as rosin size 70D made by Papermaker's Chemical Department, Hercules, Inc., Kalamazoo, Mich.
(3) A solution of the toxicant or control agent to be evaluated in each test, to give the concentration desired in parts per million by weight.
(4) A sterile solution of buffer salts to adjust the substrate to a pH of 4.5 to 5.0, prepared from 0.2M solutions of potassium acid phthalate and sodium hydroxide. The buffer mixtures were prepared according to the procedures set forth in U.S. Pat. No. 2,881,070.
(5) Inoculum consisting of 1 milliliter of an aqueous suspension of spores and/or mycelial fragments of the test organism, Aspergillus niger.
After the inoculant suspensions of the test fungi were added, the flasks were incubated at a temperature of 30°±1° C. for a period adequate for growth to occur in the controls (portions of inoculated pulp substrate which contained no toxicant). The customary periods of incubation were 7 and 14 days. Growth was recorded after each period on the basis of the following key: […]

SMILES: COc1ccc(C(=O)C(Br)Br)cc1Br [Compound 2, 2,2,3'-tribromo-4'-methoxyacetophenone]
- killing at 2 ppm (E. aerogenes; pH 8.0): 57%
- killing at 4 ppm (E. aerogenes; pH 8.0): 100%
- killing at 8 ppm (E. aerogenes; pH 8.0): 100%
- killing at 10 ppm (E. aerogenes; pH 6.0): 100%
- killing at 10 ppm (E. aerogenes; pH 8.0): 100%
- killing at 20 ppm (E. aerogenes; pH 6.0): 100%
- killing at 20 ppm (E. aerogenes; pH 8.0): 100%
- killing at 30 ppm (E. aerogenes; pH 6.0): 100%
- killing at 30 ppm (E. aerogenes; pH 8.0): 100%
- killing at 1 ppm (Enterobacter aerogenes; pH 7.0): 12%
- killing at 1 ppm (Enterobacter aerogenes; pH 8.0): 9%
- killing at 2 ppm (Enterobacter aerogenes; pH 7.0): 22%
- killing at 2 ppm (Enterobacter aerogenes; pH 8.0): 43%
- killing at 4 ppm (Enterobacter aerogenes; pH 7.0): 41%
- killing at 4 ppm (Enterobacter aerogenes; pH 8.0): 83%
- killing at 8 ppm (Enterobacter aerogenes; pH 7.0): 35%
- killing at 8 ppm (Enterobacter aerogenes; pH 8.0): 91%
- killing at 10 ppm (Enterobacter aerogenes; pH 7.0): 39%
- killing at 10 ppm (Enterobacter aerogenes; pH 8.0): 89%
- killing at 15 ppm (Enterobacter aerogenes; pH 7.0): 52%
- killing at 15 ppm (Enterobacter aerogenes; pH 8.0): 96%
- killing at 20 ppm (Enterobacter aerogenes; pH 7.0): 45%
- killing at 20 ppm (Enterobacter aerogenes; pH 8.0): 98%
- killing at 25 ppm (Enterobacter aerogenes; pH 7.0): 51%
- killing at 25 ppm (Enterobacter aerogenes; pH 8.0): 99%
- bactericidal activity (in words) (Enterobacter aerogenes): good bactericides
- Observation of growth 21 days after challenge ([1]; 100 ppm w/w, challenge 1): ++ (10 or more colonies were observed)
- Observation of growth 21 days after challenge ([1]; 100 ppm w/w, challenge 2): ++ (10 or more colonies were observed)
- Observation of growth 21 days after challenge ([1]; 100 ppm w/w, challenge 3): ++ (10 or more colonies were observed)
- Observation of growth 21 days after challenge ([1]; 250 ppm w/w, challenge 1): 0
- Observation of growth 21 days after challenge ([1]; 250 ppm w/w, challenge 2): 0
- Observation of growth 21 days after challenge ([1]; 250 ppm w/w, challenge 3): 0
- Observation of growth 21 days after challenge ([1]; 500 ppm w/w, challenge 1): 0
- Observation of growth 21 days after challenge ([1]; 500 ppm w/w, challenge 2): 0
- Observation of growth 21 days after challenge ([1]; 500 ppm w/w, challenge 3): 0
- Observation of growth 21 days after challenge ([1]; 2500 ppm w/w, challenge 1): 0
- Observation of growth 21 days after challenge ([1]; 2500 ppm w/w, challenge 2): 0
- Observation of growth 21 days after challenge ([1]; 2500 ppm w/w, challenge 3): 0
- Observation of growth 21 days after challenge ([1]; 5000 ppm w/w, challenge 1): 0
- Observation of growth 21 days after challenge ([1]; 5000 ppm w/w, challenge 2): 0
- Observation of growth 21 days after challenge ([1]; 5000 ppm w/w, challenge 3): 0
- Inhibition of Aspergillus niger, growth after 14 days (Aspergillus niger; 5 ppm): 4
- Inhibition of Aspergillus niger, growth after 14 days (Aspergillus niger; 10 ppm): 2
- Inhibition of Aspergillus niger, growth after 14 days (Aspergillus niger; 25 ppm): 0
- Inhibition of Aspergillus niger, growth after 14 days (Aspergillus niger; 100 ppm): 0

SMILES: COc1ccc(C(=O)CBr)cc1Br [Compound 1, 2,3'-dibromo-4'-methoxyacetophenone]
- killing at 2 ppm (E. aerogenes; pH 8.0): 99%
- killing at 4 ppm (E. aerogenes; pH 8.0): 99.9%
- killing at 8 ppm (E. aerogenes; pH 8.0): 100%
- killing at 10 ppm (E. aerogenes; pH 6.0): 100%
- killing at 10 ppm (E. aerogenes; pH 8.0): 100%
- killing at 20 ppm (E. aerogenes; pH 6.0): 100%
- killing at 20 ppm (E. aerogenes; pH 8.0): 100%
- killing at 30 ppm (E. aerogenes; pH 6.0): 100%
- killing at 30 ppm (E. aerogenes; pH 8.0): 100%
- killing at 1 ppm (Enterobacter aerogenes; pH 7.0): 31%
- killing at 1 ppm (Enterobacter aerogenes; pH 8.0): 73%
- killing at 2 ppm (Enterobacter aerogenes; pH 7.0): 25%
- killing at 2 ppm (Enterobacter aerogenes; pH 8.0): 81%
- killing at 4 ppm (Enterobacter aerogenes; pH 7.0): 38%
- killing at 4 ppm (Enterobacter aerogenes; pH 8.0): 93%
- killing at 8 ppm (Enterobacter aerogenes; pH 7.0): 0%
- killing at 8 ppm (Enterobacter aerogenes; pH 8.0): 97%
- killing at 10 ppm (Enterobacter aerogenes; pH 7.0): 10%
- killing at 10 ppm (Enterobacter aerogenes; pH 8.0): 92%
- killing at 15 ppm (Enterobacter aerogenes; pH 7.0): 18%
- killing at 15 ppm (Enterobacter aerogenes; pH 8.0): 99.8%
- killing at 20 ppm (Enterobacter aerogenes; pH 7.0): 96%
- killing at 20 ppm (Enterobacter aerogenes; pH 8.0): 100%
- killing at 25 ppm (Enterobacter aerogenes; pH 7.0): 99%
- killing at 25 ppm (Enterobacter aerogenes; pH 8.0): 97.8%
- bactericidal activity (in words) (Enterobacter aerogenes): good bactericides
- Observation of growth 21 days after challenge ([1]; 100 ppm w/w, challenge 1): ++ (10 or more colonies were observed)
- Observation of growth 21 days after challenge ([1]; 100 ppm w/w, challenge 2): ++ (10 or more colonies were observed)
- Observation of growth 21 days after challenge ([1]; 100 ppm w/w, challenge 3): ++ (10 or more colonies were observed)
- Observation of growth 21 days after challenge ([1]; 250 ppm w/w, challenge 1): 0
- Observation of growth 21 days after challenge ([1]; 250 ppm w/w, challenge 2): 0
- Observation of growth 21 days after challenge ([1]; 250 ppm w/w, challenge 3): 0
- Observation of growth 21 days after challenge ([1]; 500 ppm w/w, challenge 1): 0
- Observation of growth 21 days after challenge ([1]; 500 ppm w/w, challenge 2): 0
- Observation of growth 21 days after challenge ([1]; 500 ppm w/w, challenge 3): 0
- Observation of growth 21 days after challenge ([1]; 2500 ppm w/w, challenge 1): 0
- Observation of growth 21 days after challenge ([1]; 2500 ppm w/w, challenge 2): 0
- Observation of growth 21 days after challenge ([1]; 2500 ppm w/w, challenge 3): 0
- Observation of growth 21 days after challenge ([1]; 5000 ppm w/w, challenge 1): 0
- Observation of growth 21 days after challenge ([1]; 5000 ppm w/w, challenge 2): 0
- Observation of growth 21 days after challenge ([1]; 5000 ppm w/w, challenge 3): 0
- Inhibition of Aspergillus niger, growth after 14 days (Aspergillus niger; 5 ppm): 4
- Inhibition of Aspergillus niger, growth after 14 days (Aspergillus niger; 10 ppm): 2
- Inhibition of Aspergillus niger, growth after 14 days (Aspergillus niger; 25 ppm): 0
- Inhibition of Aspergillus niger, growth after 14 days (Aspergillus niger; 100 ppm): 0
